{"source": "patent US20250011307A1", "about": "“CRYSTALLINE FORMS OF BIARYL YAP/TAZ-TEAD PROTEIN-PROTEIN INTERACTION INHIBITORS” (Novartis AG, priority 2021, published 2025)", "type_in_all_cases": "physicochemical", "key": {"[1]": {"experiment": "Solid state bulk stability stress test (HPLC degradation products, color, XRPD)", "set-up": "key to CL color: A: No change; B: Slight discoloration; C: Medium discoloration; D: Strong discoloration", "conditions": "Compound A forms"}, "[2]": {"experiment": "Xenon light stress test of bulk (HPLC degradation products, color, XRPD)", "set-up": "key to CL color: A: No change; B: Slight discoloration; C: Medium discoloration; D: Strong discoloration", "conditions": "Compound A forms, Xenon light (1200 kLuxh, 25° C.)", "procedure": "X-ray powder diffraction (XRPD) patterns were obtained using a Bruker Advance D8 in reflection geometry. Powders were analyzed using a zero background Si flat sample holder. The radiation used was Cu Kα (A=1.5418 Å). Patterns were measured between 2° and 40° 2theta. • Sample amount: 5-10 mg • Sample holder: zero background Si flat sample holder\nX-ray powder diffraction (XRPD) patterns were obtained using a Bruker Advance D8 in reflection geometry. Powders were analyzed using a zero background Si flat sample holder. The radiation was Cu Kα (λ=1.5418 Å). Patterns were measured between 2° and 40° 2theta. • Sample amount: 5-10 mg • Sample holder: zero background Si flat sample holder"}, "[3]": {"experiment": "Excipient compatibility stress test (HPLC degradation products, color)", "set-up": "key to CL color: A: No change; B: Slight discoloration; C: Medium discoloration; D: Strong discoloration", "conditions": "Compound A forms"}, "[4]": {"experiment": "Solubility after equilibration at 25° C. for 24 h, with final pH and XRPD of solid residues", "conditions": "Compound A forms"}, "[5]": {"experiment": "Hygroscopicity (loss on drying by TGA and XRPD, as is and after storage at 92% / 80% RH)", "conditions": "Compound A forms; for Loss on drying by TGA [%]: TGA temperature per cell: Modification A 110° C., amorphous 119° C., 4-hydroxybenzoate 200° C."}, "[6]": {"conditions": "2 weeks 50° C./75% RH, 1% in mixture 1"}, "[7]": {"conditions": "2 weeks 50° C./75% RH, 1% in mixture 2"}, "[8]": {"conditions": "2 weeks 50° C./75% RH, 1% in mixture 3"}, "[9]": {"conditions": "2 weeks 50° C./75% RH, HGC capsule powder"}, "[10]": {"conditions": "2 weeks 50° C./75% RH, HPMC capsule powder"}, "[11]": {"conditions": "2 weeks 70° C./11% RH, 1% in mixture 1"}, "[12]": {"conditions": "2 weeks 70° C./11% RH, 1% in mixture 2"}, "[13]": {"conditions": "2 weeks 70° C./11% RH, 1% in mixture 3"}, "[14]": {"conditions": "2 weeks 70° C./11% RH, HGC capsule powder"}, "[15]": {"conditions": "2 weeks 70° C./11% RH, HPMC capsule powder"}, "[16]": {"conditions": "2 weeks 70° C./75% RH, 1% in mixture 1"}, "[17]": {"conditions": "2 weeks 70° C./75% RH, 1% in mixture 2"}, "[18]": {"conditions": "2 weeks 70° C./75% RH, 1% in mixture 3"}, "[19]": {"conditions": "2 weeks 70° C./75% RH, HPC capsule powder"}, "[20]": {"conditions": "2 weeks 70° C./75% RH, HPMC capsule powder"}}}
{"molecule": "CNC(=O)c1cnc(OCCO)c(F)c1-c1c(Cl)c(F)cc2c1C[C@](c1ccccc1)([C@@H]1CCCN1)O2", "note": "[Compound A Free form Modification A, 4-((2S,4S)-5-Chloro-6-fluoro-2-phenyl-2-((S)-pyrrolidin-2-yl)-2,3-dihydrobenzofuran-4-yl)-5-fluoro-6-(2-hydroxyethoxy)-N-methylnicotinamide]", "values": [{"measurement": "Bulk (XRPD)", "setting": "[1]; 2 weeks 50° C./75% RH", "result": "No change"}, {"measurement": "CL color", "setting": "[1]; 2 weeks 50° C./75% RH", "result": "A"}, {"measurement": "DP[%] degradation products, Bulk (HPLC)", "setting": "[1]; 2 weeks 50° C./75% RH", "result": 1.3, "unit": "%"}, {"measurement": "Bulk (XRPD)", "setting": "[1]; 2 weeks 80° C., 11% RH", "result": "No change"}, {"measurement": "CL color", "setting": "[1]; 2 weeks 80° C., 11% RH", "result": "A"}, {"measurement": "DP[%] degradation products, Bulk (HPLC)", "setting": "[1]; 2 weeks 80° C., 11% RH", "result": 1.4, "unit": "%"}, {"measurement": "Bulk (XRPD)", "setting": "[1]; 2 weeks 80° C./75% RH", "result": "gel"}, {"measurement": "DP[%] degradation products, Bulk (HPLC)", "setting": "[1]; 2 weeks 80° C./75% RH", "result": 12.6, "unit": "%"}, {"measurement": "Bulk amber vial (XRPD)", "setting": "[2]; amber vial", "result": "No change"}, {"measurement": "CL color", "setting": "[2]; amber vial", "result": "A"}, {"measurement": "DP[%] degradation products, Bulk amber vial (HPLC)", "setting": "[2]; amber vial", "result": 1.0, "unit": "%"}, {"measurement": "Bulk clear vial (XPRD)", "setting": "[2]; clear vial", "result": "No change"}, {"measurement": "CL color", "setting": "[2]; clear vial", "result": "B"}, {"measurement": "DP[%] degradation products, Bulk clear vial (HPLC)", "setting": "[2]; clear vial", "result": 4.1, "unit": "%"}, {"measurement": "CL color", "setting": "[3]; [6]", "result": "A"}, {"measurement": "DP[%] degradation products", "setting": "[3]; [6]", "result": 1.4, "unit": "%"}, {"measurement": "CL color", "setting": "[3]; [7]", "result": "A"}, {"measurement": "DP[%] degradation products", "setting": "[3]; [7]", "result": 2.5, "unit": "%"}, {"measurement": "CL color", "setting": "[3]; [8]", "result": "A"}, {"measurement": "DP[%] degradation products", "setting": "[3]; [8]", "result": 1.4, "unit": "%"}, {"measurement": "CL color", "setting": "[3]; [9]", "result": "A"}, {"measurement": "DP[%] degradation products", "setting": "[3]; [9]", "result": 1.2, "unit": "%"}, {"measurement": "CL color", "setting": "[3]; [10]", "result": "A"}, {"measurement": "DP[%] degradation products", "setting": "[3]; [10]", "result": 1.7, "unit": "%"}, {"measurement": "CL color", "setting": "[3]; [11]", "result": "A"}, {"measurement": "DP[%] degradation products", "setting": "[3]; [11]", "result": 1.3, "unit": "%"}, {"measurement": "CL color", "setting": "[3]; [12]", "result": "A"}, {"measurement": "DP[%] degradation products", "setting": "[3]; [12]", "result": 1.2, "unit": "%"}, {"measurement": "CL color", "setting": "[3]; [13]", "result": "A"}, {"measurement": "DP[%] degradation products", "setting": "[3]; [13]", "result": 1.1, "unit": "%"}, {"measurement": "CL color", "setting": "[3]; [14]", "result": "A"}, {"measurement": "DP[%] degradation products", "setting": "[3]; [14]", "result": 1.2, "unit": "%"}, {"measurement": "CL color", "setting": "[3]; [15]", "result": "A"}, {"measurement": "DP[%] degradation products", "setting": "[3]; [15]", "result": 1.5, "unit": "%"}, {"measurement": "CL color", "setting": "[3]; [16]", "result": "gel"}, {"measurement": "DP[%] degradation products", "setting": "[3]; [16]", "result": 6.1, "unit": "%"}, {"measurement": "CL color", "setting": "[3]; [17]", "result": "gel"}, {"measurement": "DP[%] degradation products", "setting": "[3]; [17]", "result": 7.8, "unit": "%"}, {"measurement": "CL color", "setting": "[3]; [18]", "result": "gel"}, {"measurement": "DP[%] degradation products", "setting": "[3]; [18]", "result": 11.8, "unit": "%"}, {"measurement": "CL color", "setting": "[3]; [19]", "result": "gel"}, {"measurement": "DP[%] degradation products", "setting": "[3]; [19]", "result": 3.3, "unit": "%"}, {"measurement": "CL color", "setting": "[3]; [20]", "result": "gel"}, {"measurement": "DP[%] degradation products", "setting": "[3]; [20]", "result": 6.6, "unit": "%"}, {"measurement": "final pH", "setting": "[4]; FaSSIF V2 pH 6.5", "result": "(8.07)"}, {"measurement": "Sol. (solubility)", "setting": "[4]; FaSSIF V2 pH 6.5, target concentration 20 mg/10 mL", "result": "~2, mg/mL"}, {"measurement": "final pH", "setting": "[4]; FeSSIF V2 pH 5.8", "result": "(5.98)"}, {"measurement": "Sol. (solubility)", "setting": "[4]; FeSSIF V2 pH 5.8, target concentration 20 mg/10 mL", "result": ">2, mg/mL"}, {"measurement": "final pH", "setting": "[4]; SGF pH 2.0", "result": "(2.39)"}, {"measurement": "Sol. (solubility)", "setting": "[4]; SGF pH 2.0, target concentration 20 mg/10 mL", "result": ">2, mg/mL"}, {"measurement": "final pH", "setting": "[4]; Water", "result": "(9.12)"}, {"measurement": "Sol. (solubility)", "setting": "[4]; Water, target concentration 20 mg/10 mL", "result": "0.27, mg/mL"}, {"measurement": "final pH", "setting": "[4]; pH 1.2, 100 mM HCl", "result": "(1.16)"}, {"measurement": "Sol. (solubility)", "setting": "[4]; pH 1.2, 100 mM HCl, target concentration 20 mg/10 mL", "result": ">2, mg/mL"}, {"measurement": "final pH", "setting": "[4]; pH 3.0, 50 mM citrate buffer", "result": "(3.10)"}, {"measurement": "Sol. (solubility)", "setting": "[4]; pH 3.0, 50 mM citrate buffer, target concentration 20 mg/10 mL", "result": ">2, mg/mL"}, {"measurement": "final pH", "setting": "[4]; pH 4.7, 50 mM acetate buffer", "result": "(4.86)"}, {"measurement": "Sol. (solubility)", "setting": "[4]; pH 4.7, 50 mM acetate buffer, target concentration 20 mg/10 mL", "result": ">2, mg/mL"}, {"measurement": "final pH", "setting": "[4]; pH 6.8, 50 mM phosphate buffer", "result": "(6.95)"}, {"measurement": "final pH", "setting": "[4]; pH 6.8, 50 mM phosphate buffer with 50 mM Na taurocholate", "result": "(6.91)"}, {"measurement": "Sol. (solubility)", "setting": "[4]; pH 6.8, 50 mM phosphate buffer with 50 mM Na taurocholate, target concentration 20 mg/10 mL", "result": ">2, mg/mL"}, {"measurement": "Sol. (solubility)", "setting": "[4]; pH 6.8, 50 mM phosphate buffer, target concentration 20 mg/10 mL", "result": ">2, mg/mL"}, {"measurement": "XRPD", "setting": "[5]; After 1 day at 80% RH", "result": "No change"}, {"measurement": "Loss on drying by TGA [%]", "setting": "[5]; After 1 day at 80% RH", "result": "0.7% (110° C.)"}, {"measurement": "XRPD", "setting": "[5]; After 1 day at 92% RH", "result": "No change"}, {"measurement": "Loss on drying by TGA [%]", "setting": "[5]; After 1 day at 92% RH", "result": "1.0% (110° C.)"}, {"measurement": "Loss on drying by TGA [%]", "setting": "[5]; Hygroscopicity, before RH storage", "result": "0.4% (110° C.)"}]}
